The values that follow come from patent US5763198A, “Screening assays for compounds” (Sugen, Inc., priority 1994, dated 1998).

In this test the target is T1, EGF-R (Homo sapiens, UniProt P00533).
T1 construct: another EGFR over-expressing human epidermoid carcinoma cell line, A431 (ATCC CRL 1555); endogenous in cells; host or cells: A431 (ATCC CRL 1555)
Put plainly: Cell-free screening assay for EGF-R kinase activity (EGFR immobilized from A431 lysate). The class given is biochemical. To be noted: read-out: IC50, EGF-R kinase activity in a cell free system. The protocol:
This assay provides a method for measuring the effects of test substances on the kinase activity of specific targets in a cell-free system. The target substrate is isolated from cell lysates by immobilization in microtiter plate wells coated with anti-substrate antibody. Following addition of the test substance, ATP and a bivalent cation are added to the wells to initiate the kinase-reaction. Concentrations of ATP can be varied to assess whether a test compound competes for ATP or substrate interaction. […] Phosphorylation of tyrosine residues on the immobilized target is then detected using antiphosphotyrosine antiserum.
The materials and reagents used are described in Section 6.1 with the exception that the cells used to prepare the cell lysate were another EGFR over-expressing human epidermoid carcinoma cell line, A431 (ATCC CRL 1555). Test substances were obtained from LC Service Corp (Woburn, Mass.).
Preparation of the assay plates was performed as described in Section 6.2.1.
Cells (A431) were grown to 80-90% confluency in DMEM (Gibco) plus 10% calf serum then washed twice with PBS. HNTG was added and the dish place on ice for five minutes. […] The cleared lysate can be stored at -80 C until used.
Seven μg of cell lysate was added to each well of a prepared assay plate plus PBS to make a final volume of 150 μl. […] The plate was incubated for 30 minutes, shaking, at room temperature.
The kinase reaction was initiated by the addition of 15 μl of ATP/Mn mix (in 50 mM MnCL2, final concentration of ATP 1 μM, 3 μM or 10 μM) for a total volume of […]. The plate was incubated for 5 minutes at room temperature, shaking, then washed 5 times with TBST. The amount of phosphorylation present was measured as described in Section 6.2.3.

Where two headings read alike, the source gives them in different places.

T1 sequence (P00533 25-1210): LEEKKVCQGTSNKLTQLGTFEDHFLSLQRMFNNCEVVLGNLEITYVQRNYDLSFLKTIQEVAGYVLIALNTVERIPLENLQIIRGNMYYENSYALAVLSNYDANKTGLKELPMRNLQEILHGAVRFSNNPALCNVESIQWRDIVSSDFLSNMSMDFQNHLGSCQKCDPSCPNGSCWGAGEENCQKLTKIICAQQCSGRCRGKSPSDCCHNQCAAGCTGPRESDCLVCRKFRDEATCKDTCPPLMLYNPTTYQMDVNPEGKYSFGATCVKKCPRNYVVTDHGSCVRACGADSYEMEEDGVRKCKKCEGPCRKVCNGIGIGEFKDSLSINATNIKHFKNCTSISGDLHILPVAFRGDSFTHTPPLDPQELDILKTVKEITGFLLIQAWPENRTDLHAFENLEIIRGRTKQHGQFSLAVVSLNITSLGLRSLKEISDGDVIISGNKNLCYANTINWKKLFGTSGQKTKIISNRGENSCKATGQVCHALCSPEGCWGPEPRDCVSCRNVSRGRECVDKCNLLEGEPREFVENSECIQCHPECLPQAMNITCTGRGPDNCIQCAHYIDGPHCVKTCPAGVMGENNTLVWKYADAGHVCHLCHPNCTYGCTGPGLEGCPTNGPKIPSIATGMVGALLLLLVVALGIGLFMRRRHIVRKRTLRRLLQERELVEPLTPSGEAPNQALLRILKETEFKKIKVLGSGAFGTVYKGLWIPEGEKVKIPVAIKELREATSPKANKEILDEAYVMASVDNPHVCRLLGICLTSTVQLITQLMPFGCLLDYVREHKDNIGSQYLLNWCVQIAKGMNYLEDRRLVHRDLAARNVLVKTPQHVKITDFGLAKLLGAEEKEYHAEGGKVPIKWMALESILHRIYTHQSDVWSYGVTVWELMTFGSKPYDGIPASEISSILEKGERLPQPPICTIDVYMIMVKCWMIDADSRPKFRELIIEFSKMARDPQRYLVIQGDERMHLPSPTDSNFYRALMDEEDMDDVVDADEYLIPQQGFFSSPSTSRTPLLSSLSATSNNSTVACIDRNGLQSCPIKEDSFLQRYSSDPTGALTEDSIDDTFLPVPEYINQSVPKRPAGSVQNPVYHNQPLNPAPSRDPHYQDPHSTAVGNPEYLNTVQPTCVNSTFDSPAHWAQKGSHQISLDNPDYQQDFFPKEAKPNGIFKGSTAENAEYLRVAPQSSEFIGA

On to `COC1C=CC=C(C)C(=O)NC2=CC(=O)C=C(C2=O)C(OC)C(C)CC(OC)C(OC)C(C)C=C(C)C1OC(N)=O` (stereo not shown) [Herbimycin A], for which, under “ATP conc. 1 μM”, the IC50 – broadly, the midpoint of a concentration-inhibition curve – was greater than 100000 nM.
`O=C(O)c1cc(N(Cc2ccccc2O)Cc2cc(O)ccc2O)ccc1O` [Lavendustin A]: the 50% inhibitory concentration (IC50) was determined as 80 nM (ATP conc. 1 μM), 100 nM (ATP conc. 3 μM) and 55000 nM (ATP conc. 10 μM).
